# In ChEMBL document CHEMBL1134990, “Trifluoromethyl ketones as inhibitors of histone deacetylase” (Bioorg Med Chem Lett, 2002):
# How the values were obtained:
# [1] = biological target: T1, Histone deacetylase (HDAC1 and HDAC2) (Homo sapiens, UniProt Q13547+Q92769); experiment: Inhibition of human histone deacetylase (mixture of HDAC1 and HDAC2) prepared from K562 erythroleukemia cells.; assay type: cell-based
# [2] = tested on: MDA-MB-435; experiment: Anti-proliferative activity against human tumor cell line MDA-435; assay type: functional, cell-based
# [3] = tested on: HT-1080; experiment: Anti-proliferative activity against human tumor cell line HT1080; assay type: functional, cell-based
# [4] = biological target: T1, Histone deacetylase (HDAC1 and HDAC2); experiment: Inhibition of human histone deacetylase (mixture of HDAC1 and HDAC2) prepared from K562 erythroleukemia cells; assay type: cell-based; conditions: concentration not given here
# T1 sequence (Q13547 whole entry, looked up): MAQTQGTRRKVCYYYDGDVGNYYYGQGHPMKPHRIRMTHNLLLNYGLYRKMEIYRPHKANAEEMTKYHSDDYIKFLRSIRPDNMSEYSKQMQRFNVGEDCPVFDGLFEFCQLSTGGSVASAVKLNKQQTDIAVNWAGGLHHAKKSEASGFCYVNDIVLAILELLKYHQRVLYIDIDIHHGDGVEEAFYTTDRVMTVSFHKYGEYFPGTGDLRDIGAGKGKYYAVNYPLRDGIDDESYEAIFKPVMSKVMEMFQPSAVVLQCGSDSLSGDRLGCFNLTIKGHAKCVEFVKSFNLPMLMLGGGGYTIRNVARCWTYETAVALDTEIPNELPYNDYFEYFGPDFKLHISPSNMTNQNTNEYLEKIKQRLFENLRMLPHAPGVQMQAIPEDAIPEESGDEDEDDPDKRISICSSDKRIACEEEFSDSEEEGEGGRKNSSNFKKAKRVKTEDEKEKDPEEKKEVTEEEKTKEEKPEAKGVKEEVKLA
# T1 sequence (Q92769 whole entry, looked up): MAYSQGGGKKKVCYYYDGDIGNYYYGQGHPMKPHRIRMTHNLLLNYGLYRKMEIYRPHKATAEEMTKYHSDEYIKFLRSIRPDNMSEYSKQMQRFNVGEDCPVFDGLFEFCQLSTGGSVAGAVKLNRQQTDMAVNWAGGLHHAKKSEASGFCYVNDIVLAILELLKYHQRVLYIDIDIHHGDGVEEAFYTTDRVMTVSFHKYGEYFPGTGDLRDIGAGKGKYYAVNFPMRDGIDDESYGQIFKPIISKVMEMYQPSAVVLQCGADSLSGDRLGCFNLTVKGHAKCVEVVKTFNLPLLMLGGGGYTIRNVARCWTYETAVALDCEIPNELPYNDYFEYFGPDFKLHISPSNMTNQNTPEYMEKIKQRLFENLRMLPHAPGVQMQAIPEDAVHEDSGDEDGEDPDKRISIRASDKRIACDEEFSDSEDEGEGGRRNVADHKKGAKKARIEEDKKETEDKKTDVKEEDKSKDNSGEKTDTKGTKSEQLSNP
IC50 [1] [µM],IC50 [2] [µM],IC50 [3] [µM],inhibition [4] [%],Compound
0.38,23,16,–,O=C(CCCCCCC(=O)C(F)(F)F)Nc1cccc(-c2ccccc2)c1
–,15,2.2,–,O=C(CCCCCCC(=O)C(F)(F)F)Nc1ccccc1
–,–,–,72,O=C(CCCCCCCOc1ccc(-c2ccccc2)cc1)C(F)(F)F
